Data reported in patent US20250332080A1, “Skin Cell Energy Booster Composition” (CarboCode S.A., priority 2022, published 2025).

System: Reconstructed Human Epidermis (RHE)
Assay: Proteomic (LC-MS/MS) analysis of Reconstructed Human Epidermis treated topically with ceramide in base emulsion
Format: cell-based
Conditions: topical 24 h, 0.01%, 0.03%, 0.15% ceramide in vehicle vs vehicle
Source text: FIGS. 1 to 3 show heatmaps using a log 2 scale with up- or downregulation of respective proteins upon treatment with 0.01% (01), 0.03% (03) and 0.15% (15) of respective ceramide in vehicle as compared to vehicle without ceramide (VEH) (FIG. 1: GlcCerNS, FIG. 2: LacCerNS, FIG. 3: CerNG); detailed experimental setup explained in Example 1.
Material and methods: Reconstructed Human Epidermis (RHE) cell culture was used, as this system mimics the in vivo 3D structure of epidermal tissue as well as the conditions and processes that occur in normal epidermis. RHE were cultured using the medium provided by the manufacturer until analysis. RHE were maintained in survival for 24 hours, before RHE were topically treated with lipid in a base emulsion for 24 h. 3 RHE were treated with base emulsion alone and 3 more remained untreated as a control batch (Ctrl). RHE were incubated under classical cell culture conditions (37° C., 5% CO2).
Sample preparation and LC-MS/MS analysis: Protein was extracted using the Pierce Total Protein Extraction Kit (Thermo Fisher) according to manufacturer's recommendations. The protein was mixed with Laemmli buffer and heated to 37° C. for 30 min. Protein concentration was determined by the BCA method and standardized for all samples. The samples were separated by SDS-PAGE and digested with trypsin overnight. The peptides generated were acidified and separated. The mass spectra were queried using Proteome Discoverer (version 2.5). The resulting MS/MS data were queried against the Homo sapiens proteome UP000005640 (20371 reviewed entries). Results were filtered based on unique peptides>2, and global peptide scores. Analyses were performed using Proteome Discoverer 2.5 to check for overall sample quality.
Bioinformatics and statistical analysis: Proteomic analysis returned a mean total of 34961 high-quality peptides corresponding to a mean 2422 identifiable and quantifiable RHE proteins among conditions. Proteins with a p-value<0.05 in at least one of the concentrations tested for a lipid were considered significant and used for pairwise comparisons. Relevant proteins were classified by their biological processes and associated pathways using the publicly available gene ontology (GO) database provided by the Gene Ontology Consortium and Reactome. Interactome analysis was performed using Cytoscape combined with STRING.

ceramide NG
upregulation: ATP synthase subunit delta (mitochondrial) protein level | ATP synthase subunit g (mitochondrial) protein level | cytochrome c oxidase subunit 6C protein level | phosphomevalonate kinase protein level

lactosyl ceramide
upregulation: ATP synthase subunit delta (mitochondrial) protein level | ATP synthase subunit g (mitochondrial) protein level | ATP-dependent zinc metalloprotease YME1L1 protein level | NAD-dependent malic enzyme (mitochondrial) protein level | cytochrome b-c1 complex subunit 9 protein level | cytochrome c oxidase subunit 2 protein level | cytochrome c oxidase subunit 6C protein level | cytochrome c oxidase subunit NDUFA4 protein level | phosphomevalonate kinase protein level

Glucosyl ceramide [GlcCer]
upregulation: ATP synthase subunit delta (mitochondrial) protein level | ATP synthase subunit g (mitochondrial) protein level | ATP-dependent zinc metalloprotease YME1L1 protein level | NAD-dependent malic enzyme (mitochondrial) protein level | NADH dehydrogenase [ubiquinone]1 alpha subcomplex subunit 8 protein level | NADH dehydrogenase [ubiquinone]iron-sulfur protein 2 (mitochondrial) protein level | cytochrome c oxidase subunit 6C protein level | phosphomevalonate kinase protein level
